Structures are written as SMILES.

In one data set the test system is ALM07 strain (Neonicotinoid and pyrethroid resistant) of the Tobacco Whitefly (Bemisia tabaci). The data set is described as follows: Example B2c: Bemisia tabaci residual activity, preventive egg lay (cotton seedlings), resistant strain. The data set is classed as in vivo. As to conditions: Concentration giving 50% control of resistant (ALM07) whitefly egg lay / same for susceptible whitefly; Bemisia tabaci on cotton seedlings, 3 days after exposure. The text has this: (§1) The level of resistance and therefore the impact on the performance of the insecticide can be measured by the use of a ‘Resistance Factor’. The resistance factor can be calculated by dividing the concentration of an insecticide that provides a set level of mortality (i.e. 80%) for the ‘resistant’ strain with the concentration of the same insecticide that provides the same level of mortality for the ‘susceptible’ insect of the same species and life-stage. Although there are no set rules, a low value (1-10) indicates no cross-resistance and only natural levels of variation and a high value (50+) provides strong evidence of cross-resistance.
c) Neonicotinoid and Pyrethroid Resistant Strain of the Tobacco Whitefly (Bemisia tabaci)
Bemisia tabaci strains utilised: • Standard screening strain of Bemisia tabaci (Neonicotinoid susceptible) • ALM07 strain of […] (Neonicotinoid and pyrethroid resistant) and originally provided by Rothamsted Research, UK. (>250 RF in residual mortality bioassay of adult whitefly with thiamethoxam). Bioassay Method: […]
Cotton seedlings, with all but a single leaf removed are treated with the diluted test solutions in a turn table spray chamber. […] 3 days after exposure, the total number of adult whitefly and the total number of whitefly eggs laid on the leaf are counted. Percentage control of egg lay is calculated and corrected for control mortality.
On to `CCOC(=O)OC1=C(c2c(C)cc(C)cc2C)C(=O)N(C)C12CCN(OC)CC2` [drawing 476], for which the “Resistance Factor (RF50)” value came out at 4.

In the next data set the test system is IND3 strain of Nilaparvata lugens (Neonicotinoid resistant). The data set is described as follows: Example B2b: Nilaparvata lugens larvicide, feeding/contact activity, preventive (rice seedlings), resistant strain. The data set is classed as in vivo. As to conditions: Lowest concentration giving greater than 80% mortality of resistant (IND3) hoppers / same for susceptible hoppers; Nilaparvata lugens N3 nymphs on rice seedlings, 6 and 12 days after treatment.
From the text: as §1
b) Neonicotinoid Resistant Strain of the Brown Planthopper (Nilaparvata lugens)
Nilaparvata lugens strains utilised: • Standard screening strain of Nilaparvata lugens (Neonicotinoid susceptible) • IND3 strain of Nilaparvata lugens (Neonicotinoid resistant) Bioassay Method:
Nilaparvata lugens: larvicide, feeding/contact activity, preventive
Rice seedlings are treated with the diluted test solutions in a turn table spray chamber. After drying, they are infested with 20 N3 nymphs. 6 and 12 days after the treatment samples are checked for mortality, growth regulation, and effects on the F1 generation.
Turning to `CCOC(=O)OC1=C(c2c(C)cc(Cl)cc2C)C(=O)N(C)C12CCN(OC)CC2`, the “Resistance Factor (RF80)” value came out at 4.

As to `CON1CCC2(CC1)C(=O)C(c1c(C)cc(C)cc1C)C(=O)N2C` (stereo not shown), the “Resistance Factor (RF80)” value came to 1.

With `CCOC(=O)OC1=C(c2c(C)cc(C)cc2C)C(=O)N(OC2CCCO2)C12CCN(OC)CC2` (stereo not shown), the “Resistance Factor (RF80)” value was determined as 1.

With `CCOC(=O)OC1=C(c2c(C)cc(C)cc2C)C(=O)N(OCC)C12CCN(OC)CC2` [drawing 473], the “Resistance Factor (RF80)” value is listed as below 1.

In the case of `CN1COCN(Cc2cnc(Cl)s2)/C1=N\[N+](=O)[O-]` [thiamethoxam, reference compound], the “Resistance Factor (RF80)” value is recorded as above 64.

Staying with this data set, now noted: neonicotinoid resistant IND3 versus susceptible Nilaparvata lugens.
Consider `CN1COCN(Cc2cnc(Cl)s2)/C1=N\[N+](=O)[O-]` [thiamethoxam, reference compound], for which the “Resistance factor (RF)” value is “high”.

A further data set concerns Myzus Persicae (Green Peach Aphid). The data set is described as follows: Example B1: Myzus persicae mixed population, feeding/residual contact activity, preventive (sunflower leaf discs). The conditions noted are these: foliar, 144 h, A: neonicotinoid insecticides susceptible Myzus persicae (mixed age population), 6 DAT, read-out: Mortality (A). The data set is classed as in vivo. How it is done:
Myzus Persicae (Green Peach Aphid): Mixed Population, Feeding/Residual Contact Activity, Preventive
Sunflower leaf discs are placed on agar in a 24-well microtiter plate and sprayed with test solutions. After drying, the leaf discs are infested with an aphid population of mixed ages. After an incubation period of 6 DAT, samples are checked for mortality.
By mortality is commonly meant the percentage killed. With `CCOC(=O)OC1=C(c2c(C)cc(C)cc2C)C(=O)N(C)C12CCN(OC)CC2` [P1.2, Carbonic acid ethyl ester 8-methoxy-1-methyl-2-oxo-3-(2,4,6-trimethyl-phenyl)-1,8-diaza-spiro[4.5]dec-3-en-4-yl ester], the mortality at 200 ppm turned out to be 95%.

The same data set, now with this note: foliar, 144 h, B: neonicotinoid insecticides resistant Myzus persicae (mixed age population), 6 DAT, read-out: Mortality (B).
Turning to `CCOC(=O)OC1=C(c2c(C)cc(C)cc2C)C(=O)N(C)C12CCN(OC)CC2` [P1.2, Carbonic acid ethyl ester 8-methoxy-1-methyl-2-oxo-3-(2,4,6-trimethyl-phenyl)-1,8-diaza-spiro[4.5]dec-3-en-4-yl ester], the mortality at 200 ppm is 90%.

For another data set, the system named is FRC-P strain of Myzus persicae (Neonicotinoid resistant). The data set is described as follows: Example B2a: Myzus persicae mixed population, contact activity, curative on pea seedlings, resistant strain. The data set is classed as in vivo. As to conditions: Lowest concentration giving greater than 80% mortality of resistant (FRC-P) aphids / same for susceptible aphids; Myzus persicae on pea seedlings, spray, 6 days after treatment.
From the text: as §1
a) Neonicotinoid and Pyrethroid Resistant Strain of the Green Peach Aphid (Myzus persicae)
Myzus persicae strains utilised: • Standard screening strain of Myzus persicae (Neonicotinoid susceptible) • FRC-P strain of Myzus persicae (Neonicotinoid resistant) Bioassay Method:
Myzus persicae: mixed population, contact activity, curative on pea seedlings
Pea seedlings, infested with an aphid population of mixed ages, are treated with the test solutions in a spray chamber. 6 days after treatment, samples are checked for mortality.
Regarding `CON1CCC2(CC1)NC(=O)C(c1c(C)cc(Cl)cc1C)C2=O` (stereo not shown), the “Resistance Factor (RF80)” value came to 1.

In the case of `CCOC(=O)OC1=C(c2c(C)cc(Cl)cc2C)C(=O)NC12CCN(OC)CC2`, the “Resistance Factor (RF80)” value is below 1.

Turning to `CON1CCC2(CC1)C(=O)C(c1c(C)cc(C)cc1C)C(=O)N2OC1CCCO1` (stereo not shown), the “Resistance Factor (RF80)” value is recorded as below 1.

In the case of `CCOC(=O)OC1=C(c2c(C)cc(C)cc2C)C(=O)NC12CCN(OC)CC2`, the “Resistance Factor (RF80)” value is 4.

For `CON1CCC2(CC1)NC(=O)C(c1c(C)cc(C)cc1C)C2=O` (stereo not shown), the “Resistance Factor (RF80)” value is on record as 4.

For `CCOC(=O)OC1=C(c2c(C)cc(C)cc2C)C(=O)N(OCC)C12CCN(OC)CC2` [drawing 468], the “Resistance Factor (RF80)” value is given as 4.

As for `CCOC(=O)OC1=C(c2c(C)cc(C)cc2C)C(=O)N(C)C12CCN(OC)CC2` [drawing 471], the “Resistance Factor (RF80)” value is recorded as 1.

Regarding `CN1COCN(Cc2cnc(Cl)s2)/C1=N\[N+](=O)[O-]` [thiamethoxam, reference compound], the “Resistance Factor (RF80)” value is recorded as above 250.

Staying with this data set, now noted: neonicotinoid resistant FRC-P versus susceptible Myzus persicae; mortality 6 days after treatment.
Consider `CN1COCN(Cc2cnc(Cl)s2)/C1=N\[N+](=O)[O-]` [thiamethoxam, reference compound], for which the “Resistance factor (RF)” value is reported as “high”.

Tested on in another data set: not given
Assay: not given
Conditions: not given
In general, melting point refers to the temperature of the solid-liquid transition. In turn, `CCOC(=O)OC1=C(c2cc(C)ccc2C)C(=O)N(C)C12CCN(OC)CC2` [P1.1] yielded a melting point of 96 to 110 °C.

The molecule `CCOC(=O)OC1=C(c2c(C)cc(C)cc2C)C(=O)N(CC)C12CCN(OC)CC2` [P1.8] came in with a melting point of 101 to 103 °C.

In turn, `CCOC(=O)OC1=C(c2cc(C)c(C)cc2Br)C(=O)N(C)C12CCN(OC)CC2` [P1.20] gave a melting point of 158 to 159 °C.

Consider `CCOC(=O)OC1=C(c2cc(C)c(C)cc2Cl)C(=O)N(C)C12CCN(OC)CC2` [P1.22], for which the melting point is 149 to 150 °C.

In turn, `COCON1C(=O)C(c2cc(C)ccc2C)=C(OC(=O)CC(C)(C)C)C12CCN(OC)CC2` [P1ii.5] had a melting point of 93 to 95 °C.

`COCON1C(=O)C(c2cc(C)ccc2C)=C(OC)C12CCN(OC)CC2` [P1ii.31] displayed a melting point of 91 to 93 °C.

As for `CCOC(=O)OC1=C(c2c(Cl)ccc(C)c2F)C(=O)N(OC2CCCC2)C12CCN(OC)CC2` [P1ii.43], the melting point was 135 to 137 °C.

As to `CCOC(=O)OC1=C(c2c(F)ccc(C)c2Cl)C(=O)N(OCOC)C12CCN(OC)CC2` [P1ii.61], the melting point was 116 to 119 °C.

Take `CCOC(=O)OC1=C(c2c(C)cc(Cl)cc2C)C(=O)N(OC)C12CCN(OC)CC2` [P1ii.114]: the melting point fell in the range of 122 to 125 °C.

In turn, `CON1CCC2(CC1)C(O)=C(c1cc(C)ccc1C)C(=O)N2C` [P2.1] registered a melting point of 121 to 123 °C.

`CON1CCC2(CC1)C(O)=C(c1c(C)cc(C)cc1C)C(=O)N2CC1CC1` [P2.8, 1-Cyclopropylmethyl-4-hydroxy-8-methoxy-3-(2,4,6-trimethyl-phenyl)-1,8-diaza-spiro[4.5]dec-3-en-2-one] displayed a melting point of 223 to 225 °C.

For the molecule `CCN1C(=O)C(c2c(C)cc(C)cc2C)=C(O)C12CCN(OC)CC2` [P2.11], the melting point lay in the range of 218 to 221 °C.

For `CON1CCC2(CC1)C(O)=C(c1cc(C)c(C)cc1Br)C(=O)N2C` [P2.23], the melting point was in the range of 191 to 193 °C.

Molecule `CON1CCC2(CC1)C(O)=C(c1cc(C)c(C)cc1C)C(=O)N2C` [P2.25] registered a melting point of 183 to 186 °C.

`CON1CCC2(CC1)C(O)=C(c1cc(C)c(C)cc1Cl)C(=O)N2C` [P2.26, 3-(2-Chloro-4,5-dimethyl-phenyl)-4-hydroxy-8-methoxy-1-methyl-1,8-diaza-spiro[4.5]dec-3-en-2-one]: the melting point fell in the range of 191 to 192 °C.

In the case of `CON1CCC2(CC1)C(O)=C(c1cc(Br)c(C)cc1C)C(=O)N2C` [P2.28], the melting point is 182 to 183 °C.

In the case of `COCON1C(=O)C(c2c(C)cc(-c3ccc(Cl)cc3)cc2C)=C(O)C12CCN(OC)CC2` [P2ii.15, 3-(4′-Chloro-3,5-dimethyl-biphenyl-4-yl)-4-hydroxy-8-methoxy-1-methoxymethoxy-1,8-diaza-spiro[4.5]dec-3-en-2-one], the melting point was 128 °C (dec.).

In the case of `CON1CCC2(CC1)C(O)=C(c1c(C)cc(C)cc1C)C(=O)N2OCCOC1CCCCO1` (stereo not shown) [P2ii.22], the melting point was in the range of 135 to 137 °C.

Molecule `COCON1C(=O)C(c2c(F)ccc(C)c2Cl)=C(O)C12CCN(OC)CC2` [P2ii.60] yielded a melting point of 155 to 158 °C.

On to `COCCON1C(=O)C(c2cc(Br)c(C)cc2C)=C(O)C12CCN(OC)CC2` [P2ii.73], for which the melting point was 63 to 64 °C.

In turn, `CON1CCC2(CC1)C(O)=C(c1cc(Br)c(C)cc1C)C(=O)N2OC` [P2ii.75] gave a melting point of 86 to 87 °C.

For the molecule `COCCON1C(=O)C(c2cc(Br)c(F)cc2C)=C(O)C12CCN(OC)CC2` [P2ii.87], the melting point is 71 to 74 °C.

Molecule `COCON1C(=O)C(c2cc(Br)c(F)cc2C)=C(O)C12CCN(OC)CC2` [P2ii.89] yielded a melting point of 64 to 67 °C.

In turn, `CON1CCC2(CC1)C(O)=C(c1c(C)cc(C)cc1C)C(=O)N2OCC1CCCCC1` [P2ii.96] returned a melting point of 169 to 172 °C.

Molecule `COCCON1C(=O)C(c2c(C)cc(Cl)cc2C)=C(O)C12CCN(OC)CC2` [P2ii.101] had a melting point of 161 to 164 °C.

`CON1CCC2(CC1)C(O)=C(c1c(C)cc(Cl)cc1C)C(=O)N2OC` [P2ii.102] returned a melting point of 88 to 92 °C.

`COCON1C(=O)C(c2c(C)cc(Cl)cc2C)=C(O)C12CCN(OC)CC2` [P2ii.104]: the melting point was 176 to 178 °C.

With `CON1CCC2(CC1)C(O)=C(c1c(C)cc(Cl)cc1C)C(=O)N2OC1CCCO1` (stereo not shown) [P2ii.105], the melting point is 137 to 139 °C.

For the origin of these results see US9485989B2, “Method of controlling neonicotinoid resistant hemiptera” (Syngenta Participations AG, priority 2010, dated 2016).
